Test results from patent US9458492B2, “Methods and cells for identifying RIG-I pathway regulators” (Kineta, Inc., priority 2011, dated 2016).
Entries after “also recorded” stand apart in the source; their conditions may differ.

Experiments:
[1] = system: actin promoter; assay: actin promoter luciferase counter screen in Huh 7 cells; format: cell-based, human; conditions: 10 uM
[2] = system: MRC5 cells; assay: Expression microarray analysis of KIN101-treated MRC5 cells; format: cell-based, human; conditions: 10 μM
Description: Expression microarray analysis and bioinformatics were performed as follows. Total RNA isolation and mRNA amplification were performed on equal masses of total RNA from MRC5 cells treated with either DMSO, negative control, or 10 μM KIN101 at 20 hours post treatment, and from MRC5 cells infected with Sendai virus at 20 hours post infection. Probe labeling and microarray slide hybridization were performed with the Agilent Whole Human Genome microarrays, wherein each microarray contains 44K probes, corresponding to approximately 41,000 human genes. Slides were scanned with an Agilent DNA microarray scanner, and the resulting images were analyzed using Agilent Feature Extractor (AFE) version 9.5.3.1. All data were entered into a custom-designed Oracle 9i-backed relational database (Labkey, Inc., Seattle, Wash.) and uploaded into Rosetta Resolver System 7.2 (Rosetta Biosoftware) and Spotfire Decision Site 9.1.1 (Spotfire AB) for analysis and visualization. […] Functional analysis of statistically significant gene expression changes was performed with IPA® (Ingenuity Systems, Inc., Redwood City, Calif.). This software analyzes RNA expression data in the context of known biological response and regulatory networks as well as other higher-order response pathways. IPA functional analysis identified biological functions and/or diseases that were most significant among differentially regulated genes. In the functional networks, genes are represented as nodes, and the biological relationship between 2 nodes is represented as an edge (line). All edges are supported by at least 1 published reference or from canonical information stored in the Ingenuity Pathways Knowledge Base. MRC5 cells were treated with KIN101 (10 μM) or a negative control (selected from the diversity library for having no activity in screening assays) for 20 h. Sendai virus infection was used as a positive control for the up-regulation of innate immune pathways. Total RNA was purified from triplicate samples to enable statistical analysis of the microarray data.

[3] = system: IRF-3; assay: Immunofluorescent assay for nuclear translocation of IRF-3 in Huh7 cells; format: cell-based, human; conditions: 10 μM, 18 h
Description: Huh 7 cells were seeded in clear bottom 96-well tissue culture plates at a density of 5×10^3 cells per well and grown for 24 hours. Cells were treated with compounds at final concentrations of 20 μM and 10 μM in media containing 0.5% DMSO. Negative control cells contain 0.5% DMSO only and positive control cells were infected with 10 HA of Sendai virus. […] Staining was performed as directed by instructions in the Cellomics translocation kit (Thermo Scientific). Rabbit polyclonal antibody against IRF-3 was used (1:400). Secondary anti-rabbit antibody conjugated to Dylight 488 (FITC equivalent) and Hoescht dye (nuclear stain) were used for detection of cellular IRF-3 and cell nuclei. Following secondary antibody incubation the monolayers were washed and left in 100 μL wash buffer for imaging. IRF-3 (FITC) and nuclear staining (DAPI) were viewed and quantitated by inverted microscope. Images were taken using MetaMorph software and saved as high resolution image files. Compound treatments were done in triplicate.

[4] = system: IRF-3; assay: IRF-3 nuclear translocation in cells expressing HCV NS3-4A protease (viral countermeasure); conditions: human osteosarcoma cells expressing HCV NS3-4A protease, 10 μM, 18 h
Description: Human osteosarcoma cells were stably transformed with the HCV NS3-4A protease coding sequence under control of a tetracycline inducible promoter. Cells were grown in the presence of tetracycline to keep expression of HCV protease off. […] Sendai virus infection was used as a control for IRF-3 translocation that was inhibited by HCV NS3-4A protease. Mock-treated cells were grown in media containing 0.5% DMSO. Images were analyzed on an Array Scan VTI to quantitate the IRF-3 staining in the nucleus and cytoplasm.
U2OS NS3/4A cells were thoroughly washed to remove Tetracycline and then seeded for the assay in the absence of Tetracycline to enable NS3/4A expression. Compound treatments were done as described above for Huh 7 cells.

[5] = system: Dengue virus serotype 2; assay: Dengue virus protein western blot in HEK 293 cells; format: cell-based; conditions: 0.1 uM, pre-treated 18 hours, MOI=1.0, 48 hours
Description: HEK 293 cells were seeded to a confluency of 80% in a 6-well dish. Cells were grown for 18 hours under normal growth conditions. Cells were treated with the indicated concentration of KIN101 in media containing 0.5% DMSO for 18 hours. The next day drug was removed from treated cells and cells were infected with Dengue virus serotype 2 at an MOI=1.0; infected cells were incubated under normal growth conditions for 48 hours. For Dengue virus analysis whole cell lysates were prepared and analyzed by western blot for Dengue virus specific proteins.

[6] = system: RSV A2 strain; assay: RSV-infected HeLa cell viability (trypan blue count); format: cell-based, respiratory syncitial virus (RSV); conditions: HeLa cells, RSV A2 MOI=1.0, treated 48 hours
Description: HeLa cells were infected with RSV A2 strain MOI=1.0 and were then treated with KIN101 for 48 hours. Cells were grown under normal growth conditions and cell viability was determined by counting the number of live cells and comparing drug treated and RSV infected cells to infected cells that were mock treated (no drug; vehicle alone). Cells were stained with trypan blue and counted using a hemacytometer. The number of live cells versus concentration of KIN101 added was plotted.

[7] = system: ISG54 promoter; assay: ISG54 promoter luciferase reporter assay / high-throughput screen in Huh 7 cells; format: cell-based, human
Description: A compound referred to herein as “KIN101” was identified by the screening methods disclosed herein as a RIG-I modulator. Huh 7 cells stably expressing a luciferase cistron driven by the ISG54 promoter were treated with KIN101 for 18 hours and then analyzed for luciferase production. […] Huh 7 cells were stably transfected with a luciferase promoter construct driven by the consensus ISG54 promoter. The following sequence was inserted into the pGL4.17 construct (Promega) using the restriction sites indicated (underlined): Reporter cell lines were cultured under antibiotic selection until seeding. Cells were seeded in white opaque bottom 96-well tissue culture plates at a density of 1×10^4 cells/well and grown for 24 hours without antibiotic selection. […] The remainder of the wells were treated with compound diluted to a final concentration of 10 μM in media containing 0.5% DMSO. Cells were incubated with control or compound treatment for 24 hours. Steady-Glo luciferase reagent (Promega) was added at 50 μL per well, mixed thoroughly, and incubated at room temperature for 20 minutes. Luminescence was quantitated per well using a luminometer (Berthold). Confirmation of initial hits was performed in triplicate.

[8] = system: proteins downstream of IRF activation; assay: Western blot of IRF centric gene products in treated cells; format: cell-based, human; conditions: after KIN101 treatment; IFN-β positive control
From the text: Western blot was used to quantitate levels of IRF centric gene products in human whole cell lysates from cells treated with KIN101.

[9] = system: Influenza A virus WSN strain; assay: Influenza A antiviral assays (NP ELISA, western blot); format: cell-based; conditions: NP protein ELISA / western blot
[10] = system: RSV-A2; assay: RSV viral RNA by Real Time PCR in HeLa supernatants; format: cell-based, respiratory syncitial virus (RSV); conditions: RSV-A2 MOI=1.0, 48 hours
Description: HeLa cells were infected with RSV-A2 MOI=1.0 and subsequently treated with KIN101 at the indicated concentrations and grown for 48 hours. Supernatants from infected cells were harvested, RSV RNA was purified and viral RNA quantitated utilizing Real Time PCR with RSV specific primers. Cells infected with RSV that were not KIN101-treated were utilized as a control.

[11] = system: HCV-2a; assay: HCV-2a antiviral assays in Huh 7 cells (immunofluorescence, qPCR); format: cell-based, Hepatitis C virus; conditions: Huh7 cells, HCV-2a MOI 1.0
Description: Huh 7 cells were treated with KIN101 for 24 hours and then infected with HCV-2a MOI=1.0. Cells were grown for an additional 48 hours and then stained for HCV proteins. The number of infected cells versus concentration of KIN101 added was plotted in panel A.
Huh 7 cells were pre-treated with KIN101 at 10 uM and grown for 18 hours. Cells were then infected with HCV-2a MOI=1.0 and grown for an additional 72 hours. Supernatants from infected cells were harvested, HCV RNA was purified and viral RNA quantitated utilizing Real Time PCR with HCV specific primers. Cells infected with HCV that were not KIN101-treated were utilized as a control and values set to 100% infection rate. Interferon-alpha was used as a positive control for HCV inhibition.
Huh 7 cells were infected with HCV-2a MOI=1.0 and 4 hours following infection compounds or interferon were added to infected cells. The remainder of experiment was performed as described for FIG. 7B.
Huh 7 cells were seeded as described above for the IRF-3 immunofluorescent assay. Cells were treated with 10 μM compound in media containing 0.5% DMSO. […] The number of infected cells was quantitated based on positive staining. […]
Huh 7 cells were seeded and treated as described above for the HCV antiviral assay. […] The genome copies of HCV2a in 5 μL of RNA purified from supernatants was quantitated by qPCR. […]

[12] = system: RSV; assay: RSV plaque formation in HeLa cells; format: cell-based, respiratory syncitial virus (RSV); conditions: MOI=1.0 or 0.1, 10 uM in agar overlay, 3-4 days
Description: HeLa cells were seeded to 90% confluency and infected with RSV at MOI=1.0 (1^3 dilution) or MOI=0.1 (1^4 dilution) for 2 hours. Virus was removed and cells were overlayed with agar in the presence of KIN101 10 uM. Infected cells were incubated for 3-4 days to allow for RSV plaque formation. Plaques were visualized by staining with crystal violet.

[13] = system: Huh7 cells; format: cell-based, human
Description: To assess a potential effect of KIN101 on cellular metabolism, Huh7 cells were grown for 48 hours with increasing doses of KIN101 and analyzed using an MTS assay (the higher the O.D. the more metabolism occurring).
Huh 7 cells were seeded in clear bottom 96-well tissue culture plates and grown for 24 hours. Seeded cells were treated with increasing concentrations of compound (0, 5, 10, 20, and 50 μM in media containing 0.5% DMSO) for 24 hours. Negative control wells contained 0.5% DMSO only and positive control for cytotoxicity was examined using an EMCV infection which causes 100% cytopathic effect. The proportion of viable cells was calculated using a cell viability assay that measures conversion of a tetrazolium compound [[…]-5-(3-carboxymethoxyphenyl)-2-(4-sulfophenyl)-2H-tetrazolium, inner salt; MTS] to a colored formazan compound in live cells. The conversion of MTS to formazan was detected by a 96-well microtiter plate reader, and the resulting optical densities (O.D.) were used directly to estimate cell viability. Cells were incubated for three hours in the presence of one-step reagent (Cell Titer One, Promega) before O.D. reading was done. Experiments were performed in triplicate.

[14] = 20 h, ANOVA p-value <0.01, >2 fold change

## CS(=O)(=O)Oc1ccc2c(=O)c(-c3ccc(Br)cc3)coc2c1 [KIN101]
[1]
  expression of luciferase under control of the actin promoter: did not increase expression of luciferase
[2]; [14]
  differentially expressed genes compared to DMSO treatment: 75 genes
  down-regulated genes compared to DMSO treatment: 11 genes
  up-regulated genes compared to DMSO treatment: 64 genes
[2]; 20 hours post treatment
  expression of immune pathways: induced expression of discrete immune pathways centered on IRF signaling
[3]
  IRF-3 nuclear translocation: induced nuclear translocation of IRF-3; also recorded: induction of IRF-3 nuclear translocation
[4]
  IRF-3 nuclear translocation in the presence of viral countermeasure: induction of IRF-3 nuclear translocation
[5]
  inhibition of Dengue virus protein accumulation: substantially complete inhibition
[6]
  protection from RSV induced cytopathic effects and cell death: protects cells from RSV induced cytopathic effects and cell death
[7]; 20,000-member diversity library screened at 10 μM, four standard deviation threshold
  hit in high-throughput screen for ISG54 luciferase reporter activity (RIG-I agonist activity): hits
[7]; Huh 7 cells, treated 18 hours, increasing doses
  luciferase expression under control of the ISG54 promoter: dose dependent increase in luciferase expression
[8]
  abundance of proteins downstream of IRF activation (Western blot): increased abundance of proteins downstream of IRF activation
[9]
  antiviral activity against Influenza A: antiviral activity
[10]
  amount of RSV viral RNA produced by infected cells: decreases the amount of RSV viral RNA produced by infected cells
[11]
  antiviral activity against HCV: antiviral activity
[12]
  number and size of RSV induced plaques: decreases the number and size of viral induced plaques
[13]
  effect on cellular metabolism (MTS assay): did not affect cellular metabolism
